ChEMBL document CHEMBL3232829, “Synthesis and multitarget biological profiling of a novel family of rhein derivatives as disease-modifying anti-Alzheimer agents” (J Med Chem, 2014)
pIC50: −log10 of the molar value. Calls of active or inactive are those of the source. The rule behind the calls is not given here.

What was measured:
[1] = Permeability of the compound by PAMPA assay; type: physicochemical; details: read-out: permeability
[2] = target: Amyloid-beta precursor protein (Homo sapiens) (UniProt P05067); assay: Inhibition of amyloid beta-42 (unknown origin) aggregation assessed as amyloid fibril formation at 10 uM after 24 hrs by thioflavin T fluorescence method
[3] = target: Amyloid-beta precursor protein (Homo sapiens) (UniProt P05067); assay: Inhibition of aggregation of amyloid beta-42 (unknown origin) expressed in Escherichia coli BL21 (DE3) assessed as amyloid fibril formation at 10 uM after 24 hrs by thioflavin S fluorescence method
[4] = target: Microtubule-associated protein tau (Homo sapiens) (UniProt P10636); assay: Inhibition of aggregation of tau protein (unknown origin) expressed in Escherichia coli BL21 (DE3) assessed as amyloid fibril formation at 10 uM after 24 hrs by thioflavin S fluorescence method
[5] = target: T1, Beta-secretase 1 (Homo sapiens, UniProt P56817); assay: Inhibition of human recombinant BACE1 using methoxycoumarin-Ser-Glu-Val-Asn-Leu-Asp-Ala-Glu-Phe-Lys-dinitrophenyl as substrate preincubated for 1 hr by FRET assay; details: for pIC50: read-out: IC50
[6] = target: T1, Beta-secretase 1; details: 5 uM
[7] = tested on: Mus musculus; assay: Antialzheimer activity in APP-PS1 transgenic 7 month old mouse hippocampus assessed as reduction of dodecamer of amyloid beta level at 2 mg/kg, ip administered 3 times in a week for 4 weeks by immunoblot analysis; type: functional, organism-based; set-up: dose 2 mg/kg
[8] = tested on: Mus musculus; assay: Antialzheimer activity in APP-PS1 transgenic 7 month old mouse hippocampus assessed as reduction of hexamers of amyloid beta level at 2 mg/kg, ip administered 3 times in a week for 4 weeks by immunoblot analysis; type: functional, organism-based; set-up: dose 2 mg/kg
[9] = tested on: Mus musculus; assay: Antialzheimer activity in APP-PS1 transgenic 11 month old mouse hippocampus assessed as reduction of dodecamer of amyloid beta level at 2 mg/kg, ip administered 3 times in a week for 4 weeks by immunoblot analysis; type: functional, organism-based; set-up: dose 2 mg/kg
[10] = tested on: Hippocampus; assay: Neuroprotective activity against amyloid beta-42-induced synaptic failure in C57bl6 mouse hippocampal slices assessed as induction of field excitatory postsynaptic potential at 10 uM after 1 hr by electrophysiology assay relative to control; type: functional
[11] = tested on: Hippocampus; assay: Neuroprotective activity against amyloid beta-42-induced synaptic failure in C57bl6 mouse hippocampal slices assessed as increase of SYN protein level at 1 to 100 uM uM after 1 hr by Western blot analysis; type: functional, tissue-based
[12] = tested on: Hippocampus; assay: Neuroprotective activity against amyloid beta-42-induced synaptic failure in C57bl6 mouse hippocampal slices assessed as increase of VGlut1 protein level at 1 to 100 uM uM after 1 hr by Western blot analysis; type: functional, tissue-based
[13] = tested on: Hippocampus; assay: Neuroprotective activity against amyloid beta-42-induced synaptic failure in C57bl6 mouse hippocampal slices assessed as increase of PSD95 protein level at 1 to 100 uM uM after 1 hr by Western blot analysis; type: functional, tissue-based
[14] = tested on: Hippocampus; assay: Neuroprotective activity against amyloid beta-42-induced synaptic failure in C57bl6 mouse hippocampal slices assessed as increase of SYP protein level at 1 to 100 uM uM after 1 hr by Western blot analysis; type: functional, tissue-based
[15] = tested on: Hippocampus; assay: Neuroprotective activity against amyloid beta-42-induced synaptic failure in C57bl6 mouse hippocampal slices assessed as increase of GluA2 protein level at 1 to 100 uM uM after 1 hr by Western blot analysis; type: functional, tissue-based
[16] = tested on: Hippocampus; assay: Neuroprotective activity against amyloid beta-42-induced synaptic failure in C57bl6 mouse hippocampal slices assessed as induction of long-term potentiation at 10 uM after 1 hr by electrophysiology assay relative to control; type: functional
[17] = tested on: Hippocampus; assay: Neuroprotective activity against amyloid beta-42-induced synaptic failure in C57bl6 mouse hippocampal slices assessed as increase of PSD95 protein level at 10 to 100 uM uM after 1 hr by Western blot analysis; type: functional, tissue-based
[18] = tested on: Mus musculus; assay: Antialzheimer activity in APP-PS1 transgenic 11 month old mouse hippocampus assessed as reduction of hexamers of amyloid beta level at 2 mg/kg, ip administered 3 times in a week for 4 weeks by immunoblot analysis; type: functional, organism-based; set-up: dose 2 mg/kg
[19] = tested on: Hippocampus; assay: Neuroprotective activity against amyloid beta-42-induced synaptic failure in C57bl6 mouse hippocampal slices assessed as increase of GluA2 protein level at 10 to 100 uM uM after 1 hr by Western blot analysis; type: functional, tissue-based
[20] = target: Acetylcholinesterase (Homo sapiens, UniProt P22303)
Description: Inhibition of human recombinant AChE using acetylthiocholine iodide as substrate preincubated for 20 mins by Ellman's method

[21] = target: T1, Beta-secretase 1; assay: Inhibition of human recombinant BACE1 using methoxycoumarin-Ser-Glu-Val-Asn-Leu-Asp-Ala-Glu-Phe-Lys-dinitrophenyl as substrate at 1 uM preincubated for 1 hr by FRET assay
[22] = target: Cholinesterase (Homo sapiens, UniProt P06276); assay: Inhibition of human serum BChE using butyrylthiocholine iodide as substrate preincubated for 20 mins by Ellman's method
Cholinesterase, sequence (P06276 whole entry): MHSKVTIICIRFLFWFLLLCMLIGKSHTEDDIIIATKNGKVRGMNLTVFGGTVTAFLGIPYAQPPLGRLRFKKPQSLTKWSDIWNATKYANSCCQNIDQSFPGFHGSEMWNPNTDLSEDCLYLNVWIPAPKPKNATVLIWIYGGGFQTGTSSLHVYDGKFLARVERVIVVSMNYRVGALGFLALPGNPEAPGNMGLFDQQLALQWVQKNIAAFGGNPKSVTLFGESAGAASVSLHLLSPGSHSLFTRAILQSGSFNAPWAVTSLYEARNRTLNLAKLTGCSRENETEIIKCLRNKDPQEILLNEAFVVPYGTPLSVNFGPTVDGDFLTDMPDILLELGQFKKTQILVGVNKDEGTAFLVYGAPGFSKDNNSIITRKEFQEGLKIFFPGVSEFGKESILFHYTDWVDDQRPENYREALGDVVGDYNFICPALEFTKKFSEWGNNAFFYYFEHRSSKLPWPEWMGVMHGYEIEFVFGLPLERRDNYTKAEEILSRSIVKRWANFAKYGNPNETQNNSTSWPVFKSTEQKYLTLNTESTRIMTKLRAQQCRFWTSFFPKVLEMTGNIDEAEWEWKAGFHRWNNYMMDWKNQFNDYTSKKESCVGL

Acetylcholinesterase, sequence (P22303 whole entry): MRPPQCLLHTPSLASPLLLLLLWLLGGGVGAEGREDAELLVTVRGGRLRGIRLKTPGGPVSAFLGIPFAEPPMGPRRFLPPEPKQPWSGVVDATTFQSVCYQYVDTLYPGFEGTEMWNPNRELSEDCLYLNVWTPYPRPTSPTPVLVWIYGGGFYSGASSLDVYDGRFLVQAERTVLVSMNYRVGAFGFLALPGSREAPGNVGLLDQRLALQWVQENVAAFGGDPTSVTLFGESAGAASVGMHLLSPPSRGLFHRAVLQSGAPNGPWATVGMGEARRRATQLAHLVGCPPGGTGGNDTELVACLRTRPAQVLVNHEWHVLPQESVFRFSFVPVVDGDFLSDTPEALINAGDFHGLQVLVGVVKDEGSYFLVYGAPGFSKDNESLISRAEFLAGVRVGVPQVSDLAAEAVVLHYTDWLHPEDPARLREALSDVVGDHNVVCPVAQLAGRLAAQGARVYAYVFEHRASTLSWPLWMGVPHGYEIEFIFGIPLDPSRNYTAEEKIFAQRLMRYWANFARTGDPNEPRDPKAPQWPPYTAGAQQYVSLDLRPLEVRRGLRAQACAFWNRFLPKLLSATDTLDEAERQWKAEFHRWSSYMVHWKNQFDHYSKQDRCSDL
T1 sequence (P56817 whole entry): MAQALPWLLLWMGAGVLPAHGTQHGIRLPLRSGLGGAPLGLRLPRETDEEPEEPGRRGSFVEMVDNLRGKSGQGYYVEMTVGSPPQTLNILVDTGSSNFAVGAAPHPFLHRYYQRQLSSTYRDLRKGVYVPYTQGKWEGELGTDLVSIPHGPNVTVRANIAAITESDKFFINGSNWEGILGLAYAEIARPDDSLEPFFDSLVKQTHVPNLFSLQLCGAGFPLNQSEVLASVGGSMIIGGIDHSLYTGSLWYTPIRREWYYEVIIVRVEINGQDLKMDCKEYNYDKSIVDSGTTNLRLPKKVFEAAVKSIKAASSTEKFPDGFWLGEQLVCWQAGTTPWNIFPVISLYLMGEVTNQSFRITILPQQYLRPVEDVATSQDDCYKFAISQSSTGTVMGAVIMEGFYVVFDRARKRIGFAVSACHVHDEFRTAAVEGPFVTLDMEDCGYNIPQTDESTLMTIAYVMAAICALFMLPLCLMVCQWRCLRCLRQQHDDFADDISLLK
Microtubule-associated protein tau (Homo sapiens), sequence (P10636 whole entry): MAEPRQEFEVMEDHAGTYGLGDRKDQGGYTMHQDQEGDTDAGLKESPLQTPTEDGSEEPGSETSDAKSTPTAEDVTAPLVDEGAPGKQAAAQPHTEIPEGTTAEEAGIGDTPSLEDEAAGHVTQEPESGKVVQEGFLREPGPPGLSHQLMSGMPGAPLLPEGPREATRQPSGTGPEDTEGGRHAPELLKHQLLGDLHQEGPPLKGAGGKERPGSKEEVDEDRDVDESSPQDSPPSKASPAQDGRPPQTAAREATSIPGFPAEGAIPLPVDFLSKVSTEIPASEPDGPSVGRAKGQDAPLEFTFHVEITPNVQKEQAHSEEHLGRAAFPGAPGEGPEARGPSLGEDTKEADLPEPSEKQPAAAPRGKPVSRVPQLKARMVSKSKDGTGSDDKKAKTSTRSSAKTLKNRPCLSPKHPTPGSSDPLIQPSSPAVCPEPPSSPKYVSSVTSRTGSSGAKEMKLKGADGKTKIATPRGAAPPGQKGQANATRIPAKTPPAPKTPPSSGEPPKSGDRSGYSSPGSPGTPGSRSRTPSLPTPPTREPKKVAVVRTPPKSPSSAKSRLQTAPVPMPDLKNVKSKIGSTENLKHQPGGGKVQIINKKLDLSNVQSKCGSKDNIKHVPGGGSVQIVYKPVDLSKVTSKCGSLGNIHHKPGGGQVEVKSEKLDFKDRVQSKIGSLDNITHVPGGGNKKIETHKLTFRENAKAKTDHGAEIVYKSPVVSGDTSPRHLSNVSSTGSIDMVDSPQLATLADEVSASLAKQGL
Amyloid-beta precursor protein (Homo sapiens), sequence (P05067 whole entry): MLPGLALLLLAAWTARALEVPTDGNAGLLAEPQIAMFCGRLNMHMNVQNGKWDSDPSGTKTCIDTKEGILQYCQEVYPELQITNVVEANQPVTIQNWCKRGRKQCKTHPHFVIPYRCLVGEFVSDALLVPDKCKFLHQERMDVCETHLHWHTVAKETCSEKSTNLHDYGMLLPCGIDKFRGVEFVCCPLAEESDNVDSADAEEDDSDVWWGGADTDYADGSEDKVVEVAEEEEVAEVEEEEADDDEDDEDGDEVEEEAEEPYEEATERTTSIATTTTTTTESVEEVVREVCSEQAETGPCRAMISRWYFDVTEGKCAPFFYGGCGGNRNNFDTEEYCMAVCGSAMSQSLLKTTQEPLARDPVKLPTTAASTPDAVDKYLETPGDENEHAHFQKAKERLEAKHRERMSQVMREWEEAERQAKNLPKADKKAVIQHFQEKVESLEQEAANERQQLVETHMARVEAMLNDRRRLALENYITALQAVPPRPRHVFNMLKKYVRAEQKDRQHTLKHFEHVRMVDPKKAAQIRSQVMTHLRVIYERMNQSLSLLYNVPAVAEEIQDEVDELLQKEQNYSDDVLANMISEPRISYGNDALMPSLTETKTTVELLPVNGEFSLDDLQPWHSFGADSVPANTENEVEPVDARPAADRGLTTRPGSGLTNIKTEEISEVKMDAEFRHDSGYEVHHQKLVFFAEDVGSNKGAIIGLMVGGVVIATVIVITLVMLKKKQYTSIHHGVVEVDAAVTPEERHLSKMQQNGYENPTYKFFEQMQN

| SMILES | Papp [1] | inhibition [2] | inhibition [3] | inhibition [4] | pIC50 [5] | further results |
| --- | --- | --- | --- | --- | --- | --- |
| CC1=CC2Cc3nc4cc(Cl)ccc4c(NCc4ccc(CNC(=O)c5cc(O)c6c(c5)C(=O)c5cccc(O)c5C6=O)cc4)c3C(C1)C2.Cl (racemic) | 16.3 ×10⁻⁶ cm/s | 32.4% | 57.9% | 23.1% | 5.69 |  |
| CC1=C[C@@H]2Cc3nc4cc(Cl)ccc4c(N)c3[C@H](C1)C2 | 23.6 ×10⁻⁶ cm/s | 11.5% |  |  | < 5.30 | inhibition [6]: 14% |
| CC1=C[C@H]2Cc3nc4cc(Cl)ccc4c(N)c3[C@@H](C1)C2.Cl | 25.4 ×10⁻⁶ cm/s | 13.2% |  |  | < 5.30 |  |
| CC1=CC2Cc3nc4cc(Cl)ccc4c(NCCCCCCCNC(=O)c4cc(O)c5c(c4)C(=O)c4cccc(O)c4C5=O)c3C(C1)C2.Cl (racemic) | 27.5 ×10⁻⁶ cm/s | 40.6% | 63.2% | 52% |  | pIC50 [20]: 8.50; inhibition [21]: inactive; pIC50 [22]: 5.84 |
| CC1=CC2Cc3nc4cc(Cl)ccc4c(NCCCCCCNC(=O)c4cc(O)c5c(c4)C(=O)c4cccc(O)c4C5=O)c3C(C1)C2 (racemic) |  | 40.8% | 68.4% | 30.9% |  | pIC50 [20]: 8.82; inhibition [21]: inactive; pIC50 [22]: 5.97 |
| CC1=CC2Cc3nc4cc(Cl)ccc4c(NCCCCCCCCCCCNC(=O)c4cc(O)c5c(c4)C(=O)c4cccc(O)c4C5=O)c3C(C1)C2.Cl (racemic) | 16.4 ×10⁻⁶ cm/s | 35.3% | 40.7% | 46.3% | 5.92 |  |
| CC1=CC2Cc3nc4cc(Cl)ccc4c(NCCCCCNC(=O)c4cc(O)c5c(c4)C(=O)c4cccc(O)c4C5=O)c3C(C1)C2.Cl (racemic) | 20 ×10⁻⁶ cm/s | 38.7% | 68% | 43.7% |  | pIC50 [20]: 8.97; inhibition [21]: inactive; pIC50 [22]: 6.02 |
| O=C(O)c1cc(O)c2c(c1)C(=O)c1cccc(O)c1C2=O [RHEIN] | 2.7 ×10⁻⁶ cm/s |  | 49.9% | 40.8% |  | pIC50 [20]: < 5.00; IC50 [5]: Not Active |
| CC1=CC2Cc3nc4cc(Cl)ccc4c(N)c3C(C1)C2.Cl (racemic) |  |  | inactive | inactive |  |  |

Second part, led by results:

| Papp [1] | inhibition [2] | inhibition [3] | inhibition [4] | pIC50 [5] | SMILES | further results |
| --- | --- | --- | --- | --- | --- | --- |
|  | 38.4% | 58.6% | 24.9% |  | CC1=C[C@H]2Cc3nc4cc(Cl)ccc4c(NCCCCCCCCCNC(=O)c4cc(O)c5c(c4)C(=O)c4cccc(O)c4C5=O)c3[C@@H](C1)C2.Cl | Activity [7]: Active; Activity [8]: Active; Activity [9]: Active; Activity [10]: 200%; Activity [11]: Active; Activity [12]: inactive; Activity [13]: Active; Activity [14]: inactive; Activity [15]: Active; Activity [16]: 200% |
|  | 43.2% | 47.2% | 34.3% |  | CC1=C[C@@H]2Cc3nc4cc(Cl)ccc4c(NCCCCCCCCCNC(=O)c4cc(O)c5c(c4)C(=O)c4cccc(O)c4C5=O)c3[C@H](C1)C2 | Activity [7]: Active; Activity [8]: Active; Activity [17]: Active; Activity [9]: Active; Activity [10]: inactive; Activity [18]: inactive; Activity [11]: inactive; Activity [12]: Active; Activity [14]: inactive; Activity [16]: inactive; Activity [19]: Active |
| 18.1 ×10⁻⁶ cm/s | 40.9% | 43.3% | 57.1% | 5.92 | CC1=CC2Cc3nc4cc(Cl)ccc4c(NCCCCCCCCCCNC(=O)c4cc(O)c5c(c4)C(=O)c4cccc(O)c4C5=O)c3C(C1)C2.Cl (racemic) |  |
| 21.5 ×10⁻⁶ cm/s | 38% | 47.9% | 29.6% | 6.92 | CC1=CC2Cc3nc4cc(Cl)ccc4c(NCCCCCCCCCNC(=O)c4cc(O)c5c(c4)C(=O)c4cccc(O)c4C5=O)c3C(C1)C2.Cl (racemic) |  |
| 22.4 ×10⁻⁶ cm/s | 33.1% | 50.2% | 29.2% | 6.01 | CC1=CC2Cc3nc4cc(Cl)ccc4c(NCCCCCCCCNC(=O)c4cc(O)c5c(c4)C(=O)c4cccc(O)c4C5=O)c3C(C1)C2.Cl (racemic) |  |
